Patent US20210030725A1, “RESTORATION OF TRANSMEMBRANE COPPER TRANSPORT” (The Board of Trustees of the University of Illinois, priority 2018, published 2021)

Columns and labels:
[1] = UV-vis titration with copper (II) chloride; assay type: binding
[2] = system: DELccc2 yeast strain missing the intracellular ATP-driven copper pump CCC2; experiment: Growth rescue of DELccc2 yeast on solid media; assay type: cell-based
Protocol: Growth rescue in yeast was performed on SD-agar plates in 50 mM MES/Tris buffer at pH=7.0 containing 2% agarose gel, and 10 μM hinokitiol (from 40× stock in DMSO). Wild type and DELccc2 yeast strain controls treated with vehicle (DMSO) were performed under identical conditions using a no-copper containing SD media supplemented with 0.5 μM CuCl2 in the absence of hinokitiol. Yeast were grown overnight in YPD media and diluted to an optical density at 600 nm (OD600) of 1.0 in low copper SD media before 10-fold serial dilution and inoculation of these yeast suspensions (10 μL per dot) onto the low copper SD-agar plates described above containing either DMSO vehicle or hinokitiol (10 μM from 40× DMSO stock). For disc diffusion assays, yeast were grown overnight in YPD media and diluted to an OD600=0.1 in low copper SD media and streaked onto low copper SD-agar plates containing 0.5 μM CuCl2. Disc diffusion assays were performed using either DMSO or 10 mM stock solutions (in DMSO) of hinokitiol on low copper SD-agar plates containing 0.5 μM CuCl2 streaked with the appropriate yeast strain (from OD600=0.1 in low copper SD media). Images were taken 48 hours after inoculation and incubation at 30° C. unless otherwise noted. […]

[3] = Stoichiometric metal competition, ICP-MS quantification of extracted hinokitiol-bound metal; assay type: binding; conditions: 1 mM each divalent metal, 1 mM hinokitiol, 10 mM Mes/Tris, 1:1 MeOH:H2O, pH 7.0, N=6
Protocol: Hinokitiol binds to and sequesters copper with a greater affinity than any other metal (including iron). Stoichiometric competition experiments with 1 mM of each divalent metal and 1 mM hinokitiol in a 10 mM Mes/Tris buffer in 1:1 MeOH:H2O at pH=7.0. Hinokitiol binds many metals by ICP-MS quantification of extracted hinokitiol-bound metal. The metal in the organic layer was determined to be in the order of Cu>Fe>Mn≈Zn>Co>Ni. ND=Not detected. N=6. (FIG. 2)

[4] = system: iron transporter-deficient yeast missing the FetFtr1 transport complex; experiment: Growth rescue of iron transporter-deficient yeast; assay type: cell-based, Saccharomyces cerevisiae; conditions: respiratory and non-permissive copper conditions
[5] = Partitioning of chelator:copper complex between octanol and water; assay type: physicochemical; conditions: hinokitiol:copper complex
Protocol: Biophysical experiments were performed to better understand the capacity of hinokitiol to bind and transport copper. […] Unlike the aforementioned water-soluble copper chelators, the hinokitiol:copper complex primarily partitioned into the nonpolar solvents over water (FIG. 4A). To expand, 95% of the hinokitiol:copper complex partitioned into octanol over water as opposed to >85% of the currently available water-soluble chelators partitioned into water over octanol.

[6] = Hinokitiol-promoted release of divalent metals from POPC liposomes (PhenGreen assay); conditions: hinokitiol 10 μM
Protocol: Hinokitiol-promoted release of different divalent metals from POPC liposomes was performed by tracking the quenching of PhenGreen (Fisher P14312) similar to previously reported. Liposomes were prepared as described above with an internal buffer consisting of either 10 mM ascorbate in a 5 mM MES/Tris buffer at pH=7.0 (for Fe^2+), 10 mM citrate in a 5 mM MES/Tris buffer at pH=7.0 (for Cu^2+), or a 5 mM MES/Tris buffer at pH=7.0 (for Mn^2+, Co^2+, and Zn^2+). In all cases, liposomes were prepared using 5 mM of either FeCl2, MnCl2, CoCl2, NiCl2, ZnCl2, or CuCl2 added to the internal buffer. […] The fluorescence was monitored with excitation at 500 nm and emission at 530 nm over 1 hour. After one hour, the liposomes were lysed with Triton-X and the fluorescence was recorded. […] The DMSO-treated and hinokitiol-treated liposomes had similar fluorescence quenching levels after lysis. The total amount of metal efflux was determined using standard curves of fluorescence quenching in external buffer with 10 μM PhenGreen and known concentrations of each metal. The t1/2 values were calculated using an asymptotic fit in OriginPro. […] Hinokitiol (10 μM) rapidly promotes the efflux of multiple divalent metals from POPC liposomes as determined by a PhenGreen assay. […] Quantification of metal release was done by comparison of fluorescence quenching to a standard curve for each metal. […]

[7] = system: DELccc2 yeast strain missing the intracellular ATP-driven copper pump CCC2; experiment: Growth rescue of DELccc2 yeast in liquid culture; assay type: cell-based
Protocol: (§1) Growth rescue in yeast was performed using 10 μM hinokitiol in SD media in a 96-well plate unless otherwise noted. Wild type and DELccc2 yeast strain treated with vehicle (DMSO) or hinokitiol were performed under identical conditions using a normal iron-containing, no-copper containing SD media, this time supplemented with 1.5 or 2 μM CuCl2. Yeast were grown overnight in YPD media and diluted at an OD600 of 0.1 in SD media, diluted 10-fold, and incubated at 30° C. with continuous shaking (200 rpm). The OD600 was obtained 48 hours after inoculation unless otherwise noted. Small molecule dose-response with hinokitiol was determined by addition of the small molecule (40× stock solution in DMSO) to give the indicated final concentrations. Copper dose-response studies were performed in low copper SD media without CuCl2 containing the indicated concentrations of hinokitiol (from a 40× stock solution in DMSO). For dose-dependent hinokitiol-promoted rescue at increasing dosages of CuCl2, SD media was made containing the indicated concentrations of CuCl2 from 1000× CuCl2 stocks before adding hinokitiol (40× stock solution in DMSO) to give the indicated final concentrations. […]

[8] = system: Δctr1Δctr3 yeast missing the passive copper transporters Ctr1Ctr3; experiment: Growth rescue of Δctr1Δctr3 yeast; assay type: cell-based, Saccharomyces cerevisiae; conditions: respiratory and non-permissive conditions, copper dependent, maximum at intermediate hinokitiol concentrations
Protocol: as §1, with “DELctr1DELctr3” for “DELccc2”, “strain controls” for “strain”, “media,” for “media, this time”, “1.0” for “1.5 or 2”

[9] = Copper (II) transport across liposomal membranes, hinokitiol vs water-soluble chelators; conditions: relative to controls

CC(C)c1cccc(=O)c(O)c1 [hinokitiol, 2-hydroxy-6-propan-2-ylcyclohepta-2,4,6-trien-1-one]
copper binding (complex formation, shift in UV-vis spectra) [1]: readily binds copper | growth rescue [2]: Vigorous rescue | order of metal in the organic layer (extracted hinokitiol-bound metal) [3]: Cu>Fe>Mn≈Zn>Co>Ni | restoration of yeast growth [4]: unable to restore growth | share of copper complex partitioned into octanol over water [5]: 95% | transport of MnII from liposomes [6]: unable to transport | growth rescue [7]: Vigorous rescue | restoration of yeast growth [8]: dose-dependently restored yeast growth up to wild type control levels | copper (II) transport across liposomal membranes [9]: transported copper (II) across liposomal membranes
